Results from patent US10538567B2, “Compounds as peptidic trigonal GLP1/glucagon/GIP receptor agonists” (priority 2016, dated 2020).
Numbered stars: 1 amine (or outer) side, 2 acyl side, 3 side chain; on linkers, the order of the positions; unused ones are H or OH. Square brackets hold non-standard residues; d marks the D form. Side chains are listed from the residue outwards. Peptide text beside a SMILES is read from it. * marks the point of attachment. γGlu = O=C(O)[C@H](CCC(=O)[*:2])N[*:1]; Palmitoyl = CCCCCCCCCCCCCCCC(=O)*; Aib = CC(C)(N)C(=O)O

Experiments:
human GLP-1 receptor = biological target: T1, human GLP-1 receptor (Homo sapiens, UniProt P43220); assay: cAMP response (HTRF) of HEK-293 cells stably expressing human GLP-1 receptor; format: cell-based; conditions: Table 8; read-out: EC50 hGLP-1R
T1 construct: expressed in transfected cells; host or cells: HEK-293
Procedure: cAMP content of cells was determined using a kit from Cisbio Corp. (cat. no. 62AM4PEJ) based on HTRF (Homogenous Time Resolved Fluorescence). For preparation, cells were split into T175 culture flasks and grown overnight to near confluency in medium (DMEM/10% FBS). Medium was then removed and cells washed with PBS lacking calcium and magnesium, followed by proteinase treatment with accutase (Sigma-Aldrich cat. no. A6964). Detached cells were washed and resuspended in assay buffer (1×HBSS; 20 mM HEPES, 0.1% BSA, 2 mM IBMX) and cellular density determined. They were then diluted to 400000 cells/ml and 25 μl-aliquots dispensed into the wells of 96-well plates. For measurement, 25 μl of test compound in assay buffer was added to the wells, followed by incubation for 30 minutes at room temperature.
Potencies of peptidic compounds at the GLP-1, glucagon and GIP receptors were determined by exposing cells expressing human glucagon receptor (hGlucagon R), human GIP receptor (hGIP-R) or human GLP-1 receptor (hGLP-1 R) to the listed compounds at increasing concentrations and measuring the formed cAMP as described in Methods.

[1] = tested on: female diet-induced obese (DIO) C57BL/6 mice; assay: Acute and chronic effects after s.c. treatment in female diet-induced obese (DIO) C57BL/6 mice; format: in vivo; conditions: for time until mice habituated to the feed intake suppression / Feed consumption estimate: DIO mice, 30 μg/kg s.c. twice-daily; for Feed consumption estimate: after dosing start; for Blood glucose profile following first treatment: fed DIO mice, day 1, 30 μg/kg s.c., 0-24 hours post-dose
Procedure: Female C57BL/6NHsd mice were ordered group housed from Envigo RMS Inc., shipped group housed and remained group housed with shipped cage mates in shoebox caging with wood chip bedding until day 38 of the predose phase. At the study start mice were between 25-26 weeks old.
Mice were housed under vivarium conditions that included a 12 h light/dark cycle (light phase 04:00 AM-4:00 PM), room temperatures between 23-26° C. and a relative humidity between 30-70%. All animals had free access to water and a high fat diet (TD97366) for 16 weeks prior to pharmacological intervention (dosing phase). Feed was replaced with fresh feed weekly until and for the last time on day 38 of the predose phase. During the subsequent dosing phase, approximately 50% of the remaining feed were removed, replaced with fresh feed, and pellets were mixed evenly once per week.
On predose day 38, obese DIO mice were assigned to treatment groups (n=8) to match mean body masses between all DIO groups. An age-matched group with ad libitum access to a rodent maintenance diet (Teklad Global Diets Rodent 2014, pelleted) was included in the study as a lean control group. In the predosing phase from day 32 through 38, all study animals were treated with vehicle (Phosphate Buffered Saline, PBS, Gibco, without CaCl2 and MgCl2) once daily (s.c. approximately 0.2 mL/mouse).
On day 37 of the predose phase, the test article was diluted with PBS to a concentration of 100 μg/mL and aliquots of this stock solution were stored at approximately ≤−60° C. Stock aliquots were thawed for weekly use and thereafter stored in a refrigerator at approximately 4° C. The injected test article solution was prepared fresh once on each dosing day by diluting stock solution with PBS to achieve the desired concentration.
Mice were treated twice daily with a s.c. injection of PBS-vehicle or the test article for 28 days. The morning dosing was initiated and completed between 06:00 and 07:30 AM and the afternoon dosing between 2:00 and 3:30 PM. On day 28 of the dosing phase only the morning dose was administered. The applied volume was 5 ml/kg and the dose was adjusted to the most recent body mass recording of each individual.
Animals had unlimited access to water and feed during the experiment. On day 1 of the dosing phase approximately 5 μL of blood were collected via tail clips at hour 0 prior to the first s.c. dose of PBS-vehicle or test article and 1, 2, 3, 4, 6, and 24 hours post-dose in non-anesthetized animals. The 24 hour blood collection was performed prior to dosing on day 2. Between the 6 and 24 hour blood sample the afternoon dose was administered. Glucose measurements were performed in whole blood and in duplicate or triplicate using Aviva glucometers.
Body mass was measured daily approximately between 06:00-07:30 AM from day 32 through 38 of the predosing phase and throughout the 28 days of the dosing phase. During the dosing phase mice were treated twice daily with either a s.c. injection of PBS-vehicle or test article.
To determine whole body fat mass Quantitative Nuclear Magnetic Resonance (QNMR) measurements were performed on predosing day 37 and on day 26 of the dosing phase. During the dosing phase mice were treated twice daily with either a s.c. injection of PBS-vehicle or test article.
Feed consumption was based on the daily assessment of the feeder weights of each cage between 06:00-07:30 AM. Each cage housed four mice and feed consumption was calculated throughout the 28 days of the dosing phase. During the dosing phase mice were treated twice daily with either a s.c. injection of PBS-vehicle or test article.
On day 28 blood was collected prior to any other inlife activities for determination of plasma insulin concentrations. Then the morning dose was administered and necropsy was performed 4 hours post-dose. For this purpose animals were anesthetized with isoflurane and blood was collected by orbital bleeding. […]

T1 sequence (P43220 24-463): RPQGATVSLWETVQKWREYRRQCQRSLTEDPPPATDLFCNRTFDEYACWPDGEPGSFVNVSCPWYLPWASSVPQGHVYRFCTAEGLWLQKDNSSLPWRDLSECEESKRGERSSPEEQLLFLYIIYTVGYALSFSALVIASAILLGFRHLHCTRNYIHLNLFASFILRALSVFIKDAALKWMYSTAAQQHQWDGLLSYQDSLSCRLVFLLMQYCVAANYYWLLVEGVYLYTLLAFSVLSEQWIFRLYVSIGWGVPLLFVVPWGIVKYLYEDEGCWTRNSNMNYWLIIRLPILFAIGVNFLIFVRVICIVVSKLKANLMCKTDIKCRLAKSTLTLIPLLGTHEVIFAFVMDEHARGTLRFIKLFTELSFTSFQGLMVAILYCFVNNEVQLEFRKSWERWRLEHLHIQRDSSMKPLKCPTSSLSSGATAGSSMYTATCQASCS

Compound	EC50 (human GLP-1 receptor) [pM]	time until mice habituated to the feed intake suppression [1]	Feed consumption estimate [1]	Blood glucose profile following first treatment [1]
CCCCCCCCCCCCCCCC(=O)N[C@@H](CCC(=O)N[C@@H](CCC(=O)NCCCC[C@H](NC(=O)[C@H](CC(C)C)NC(=O)[C@H](CCCCN)NC(=O)[C@H](CO)NC(=O)[C@H](CC(C)C)NC(=O)[C@H](CC(=O)O)NC(=O)[C@H](CO)NC(=O)[C@@H](NC(=O)[C@H](Cc1ccccc1)NC(=O)[C@@H](NC(=O)CNC(=O)[C@H](Cc1c[nH]cn1)NC(=O)C(C)(C)NC(=O)[C@@H](N)Cc1c[nH]cn1)[C@@H](C)O)[C@@H](C)O)C(=O)N[C@@H](CCC(=O)O)C(=O)N[C@@H](CCC(=O)O)C(=O)N[C@@H](CCC(N)=O)C(=O)N[C@@H](CCCNC(=N)N)C(=O)N[C@@H](CCC(N)=O)C(=O)N[C@@H](CCCCN)C(=O)N[C@@H](CCC(=O)O)C(=O)N[C@@H](Cc1ccccc1)C(=O)N[C@H](C(=O)N[C@@H](CCC(=O)O)C(=O)N[C@@H](Cc1c[nH]c2ccccc12)C(=O)N[C@@H](CC(C)C)C(=O)N[C@@H](CCCCN)C(=O)N[C@@H](C)C(=O)NCC(=O)NCC(=O)N[C@@H](Cc1c[nH]cn1)C(=O)N1CCC[C@H]1C(=O)N[C@@H](CO)C(=O)NC(C)(C)C(=O)N[C@@H](CCCCN)C(=O)N1CCC[C@H]1C(=O)N1CCC[C@H]1C(=O)N1CCC[C@H]1C(=O)N[C@@H](CCCCN)C(N)=O)[C@@H](C)CC)C(=O)O)C(=O)O [SEQ ID NO: 6, H-Aib-H-G-T-F-T-S-D-L-S-K-L-K[gGlu-gGlu-Palm]-E-E-Q-R-Q-K-E-F-I-E-W-L-K-A-G-G-H-P-S-Aib-K-P-P-P-K-NH2]	1.4	approximately ten	suppressed feed intake	pronounced decrease in blood glucose concentrations over 24 hours
CCCCCCCCCCCCCCCC(=O)N[C@@H](CCC(=O)N[C@@H](CCC(=O)NCCCC[C@H](NC(=O)[C@H](CC(C)C)NC(=O)[C@H](CCCCN)NC(=O)[C@H](CO)NC(=O)[C@H](CC(C)C)NC(=O)[C@H](CC(=O)O)NC(=O)[C@H](CO)NC(=O)[C@@H](NC(=O)[C@H](Cc1ccccc1)NC(=O)[C@@H](NC(=O)CNC(=O)[C@H](Cc1c[nH]cn1)NC(=O)C(C)(C)NC(=O)[C@@H](N)Cc1c[nH]cn1)[C@@H](C)O)[C@@H](C)O)C(=O)N[C@@H](CCC(=O)O)C(=O)N[C@@H](CCC(=O)O)C(=O)N[C@@H](CCC(N)=O)C(=O)N[C@@H](CCCNC(=N)N)C(=O)N[C@@H](CCC(N)=O)C(=O)NC(C)(C)C(=O)N[C@@H](CCC(=O)O)C(=O)N[C@@H](Cc1ccccc1)C(=O)N[C@H](C(=O)N[C@@H](CCC(=O)O)C(=O)N[C@@H](Cc1c[nH]c2ccccc12)C(=O)N[C@@H](CC(C)C)C(=O)N[C@@H](CCCCN)C(=O)N[C@@H](C)C(=O)N[C@H](C)C(=O)NCC(=O)N1CCC[C@H]1C(=O)N1CCC[C@H]1C(=O)N[C@@H](CO)C(=O)NC(C)(C)C(=O)N[C@@H](CCCCN)C(=O)N1CCC[C@H]1C(=O)N1CCC[C@H]1C(=O)N1CCC[C@H]1C(=O)N[C@@H](CCCCN)C(N)=O)[C@@H](C)CC)C(=O)O)C(=O)O [SEQ ID NO: 11, H-Aib-H-G-T-F-T-S-D-L-S-K-L-K[gGlu-gGlu-Palm]-E-E-Q-R-Q-Aib-E-F-I-E-W-L-K-A-dAla-G-P-P-S-Aib-K-P-P-P-K-NH2] (H-H[Aib]HGTFTSDLSKLK([γGlu-γGlu-Palmitoyl])EEQRQ[Aib]EFIEWLKA[dA]GPPS[Aib]KPPPK-NH2)		approximately 15 days	suppressed feed intake	pronounced decrease in blood glucose concentrations that persisted over 24 hours
